Assay results from patent EP1560558B1, “USE OF 3-POSITION CYCLOSPORIN DERIVATIVES FOR HAIR GROWTH” (LG Household & Health Care Ltd., priority 2002, dated 2010).

Test system: Female C57BL/6 mice
Assay: Test for hair growth promoting effect (hair regrowth on shaved back of mice, topical application)
Format: in vivo
Conditions: female C57BL/6 mice 6 to 7 weeks, hair-removed back, 100 µl (conc. 0.1% w/v) once a day for 30 days, visual approach; vehicle control 40
Description: Test Example: Test for hair growth promoting effect of cyclosporin derivatives of the invention
Female C57BL/6 mice of ages 6 to 7 weeks were utilized. After removing hairs on the middle of the back with an electric shaver, the mice were weighed and randomly assigned to the test groups with an even distribution of weights. The mice were given one day for adaptation. […] The results were determined by visual approach, in terms of degrees of hair regrowth. With respect to respective hair-removed areas, rates of new hair growth were examined and compared.

Row | Molecule | Area rate of hair regrowth (%)
1 | C/C=C/C[C@@H](C)[C@@H](O)[C@H]1C(=O)N[C@@H](CC)C(=O)N(C)[C@H](SCCC)C(=O)N(C)[C@@H](CC(C)C)C(=O)N[C@@H](C(C)C)C(=O)N(C)[C@@H](CC(C)C)C(=O)N[C@@H](C)C(=O)N[C@H](C)C(=O)N(C)[C@@H](CC(C)C)C(=O)N(C)[C@@H](CC(C)C)C(=O)N(C)[C@@H](C(C)C)C(=O)N1C [Compound 2, [D-2-propylthio-sar^3] cyclosporin A] | 92
2 | C/C=C/C[C@@H](C)[C@@H](O)[C@H]1C(=O)N[C@@H](CC)C(=O)N(C)[C@H](SCC)C(=O)N(C)[C@@H](CC(C)C)C(=O)N[C@@H](C(C)C)C(=O)N(C)[C@@H](CC(C)C)C(=O)N[C@@H](C)C(=O)N[C@H](C)C(=O)N(C)[C@@H](CC(C)C)C(=O)N(C)[C@@H](CC(C)C)C(=O)N(C)[C@@H](C(C)C)C(=O)N1C [Compound 1, [D-2-ethylthio-sar^3]cyclosporin A] | 90
3 | C=CCS[C@@H]1C(=O)N(C)[C@@H](CC(C)C)C(=O)N[C@@H](C(C)C)C(=O)N(C)[C@@H](CC(C)C)C(=O)N[C@@H](C)C(=O)N[C@H](C)C(=O)N(C)[C@@H](CC(C)C)C(=O)N(C)[C@@H](CC(C)C)C(=O)N(C)[C@@H](C(C)C)C(=O)N(C)[C@@H]([C@H](O)[C@H](C)C/C=C/C)C(=O)N[C@@H](CC)C(=O)N1C [Compound 4, [D-2-allylthio-sar^3] cyclosporin A] | 90
4 | C/C=C/C[C@@H](C)[C@@H](O)[C@H]1C(=O)N[C@@H](CC)C(=O)N(C)[C@H](SC(C)C)C(=O)N(C)[C@@H](CC(C)C)C(=O)N[C@@H](C(C)C)C(=O)N(C)[C@@H](CC(C)C)C(=O)N[C@@H](C)C(=O)N[C@H](C)C(=O)N(C)[C@@H](CC(C)C)C(=O)N(C)[C@@H](CC(C)C)C(=O)N(C)[C@@H](C(C)C)C(=O)N1C [Compound 3, [D-2-isopropylthio-sarl^3] cyclosporin A] | 85
5 | [D-2-(dimethylthiocarbamyl)dithio-sar^3] cyclosporin A [Compound 7] | 85
6 | C/C=C/C[C@@H](C)[C@@H](O)[C@H]1C(=O)N[C@@H](CC)C(=O)N(C)[C@H](Sc2ccc([N+](=O)[O-])cc2)C(=O)N(C)[C@@H](CC(C)C)C(=O)N[C@@H](C(C)C)C(=O)N(C)[C@@H](CC(C)C)C(=O)N[C@@H](C)C(=O)N[C@H](C)C(=O)N(C)[C@@H](CC(C)C)C(=O)N(C)[C@@H](CC(C)C)C(=O)N(C)[C@@H](C(C)C)C(=O)N1C [Compound 6, [D-2-(4-nitrophenyl)thio-sar^3] cyclosporin A] | 89
7 | C/C=C/C[C@@H](C)[C@@H](O)[C@H]1C(=O)N[C@@H](CC)C(=O)N(C)[C@H](SCc2ccccc2)C(=O)N(C)[C@@H](CC(C)C)C(=O)N[C@@H](C(C)C)C(=O)N(C)[C@@H](CC(C)C)C(=O)N[C@@H](C)C(=O)N[C@H](C)C(=O)N(C)[C@@H](CC(C)C)C(=O)N(C)[C@@H](CC(C)C)C(=O)N(C)[C@@H](C(C)C)C(=O)N1C [Compound 5, [D-2-benzylthio-sar^3] cyclosporin A] | 90

Test system: mouse's back
Assay: not given
Conditions: comparative experiments on mouse's back, relative to minoxidil; cited from earlier work

Row | Molecule | hair regrowth effect, times superior to minoxidil
8 | cyclosporin | about 100 times
